Test results from patent US20170042849A1, “COMPOSITION FOR BRAIN IMPROVEMENT” (N.V. Nutricia, priority 2014, published 2017).

What was measured:
C3H/HeOuJ mice [1] = assay: T maze spontaneous alternation spatial memory performance test; assay type: in vivo; settings: CMA sensitized mice
Protocol: (§1) Pathogen-free, male C3H/HeOuJ mice (4 weeks old, Charles River Laboratories) mice were bred and raised on a cow's milk protein-free diet (Special Diet Services, Witham, UK) and housed on a 12 h light-dark cycle with access to food and water ad libitum. All animal procedures were conducted in accordance with the guidelines of the Dutch Committee of Animal Experiments. The mice were sensitized orally with 0.5 mL homogenized whey protein (40 mg/mL PBS) and cholera toxin (CT, 20 μg/mL PBS, Quadratech Diagnostics) as an adjuvant; sham-sensitized mice received CT alone. Mice were orally boosted once a week for 5 consecutive weeks. One week after the last sensitization, mice were challenged orally with 0.5 mL whey (100 mg/mL PBS). The mice were fed a control diet, or a diet supplemented with glutamine (5 wt %). At the end, the mice were subjected to social interaction and spatial memory tests. Cow's milk allergy is associated with disturbed social interaction and impaired spatial memory, and thus suited to study the effects of dietary intervention there. […] The percentage of alternation (number of turns in each goal arm) and total trial duration are recorded. This test is used to quantify cognitive deficits in transgenic strains of mice and evaluate novel chemical entities for their effects on cognition. […]

C3H/HeOuJ mice [2] = assay: Social interaction test in cow's milk allergy model mice and unsensitized mice; assay type: in vivo
Protocol: as §1, with “By using video tracking software (EthoVision 3.1.16, Noldus), an interaction zone around the cage was digitally determined. Time spent in the interaction zone as well as frequency” for “The percentage”, “entering the interaction zone over the selected time period was measured.” for “alternation (number of turns in each goal arm) and total trial duration are recorded. This test is used to quantify cognitive deficits in transgenic strains of mice and evaluate novel chemical entities for their effects on cognition.”

NC(=O)CC[C@H](N)C(=O)O [glutamine, L-glutamine]
% Alternation in spatial memory test (C3H/HeOuJ mice [1]; diet supplemented with glutamine (5 wt %), mean, s.e.): 66.7 +/− 6.4 (n = 12) % | Reduced alternation in the T-maze test vs control CMA-mice, in words (C3H/HeOuJ mice [1]; diet with supplementation of Gln): markedly improved | Time spent in interaction zone (C3H/HeOuJ mice [2]; CMA sensitized mice, diet supplemented with glutamine (5 wt %), mean +/- s.e.): 117 +/− 20.8 (n = 12) sec | Time spent in the interaction zone (C3H/HeOuJ mice [2]; unsensitized mice fed the Gln diet): 174 ± 19.1 s
